melting point | SMILES
117 °C | CCOC(=O)c1ccc(O)cc1 [Ethyl 4-hydroxybenzoate]
64 °C | O=C(O)CCc1cccc(Br)c1 [3-(3-bromophenyl)propionic acid]
123 °C | COC(=O)C1C(=O)C=C(O)CC1C (stereo unspecified) [methyl 4-hydroxy-6-methyl-2-oxo-3-cyclohexene-1-carboxylate]
-19 °C | CCCCOc1ccccc1 [N-butyl phenyl ether]
22 °C | O=Cc1ccccc1Br [o-bromobenzaldehyde]
111 °C | O=Cc1cccc(B(O)O)c1 [3-formylbenzeneboronic acid]
176 °C | COc1cc(C=O)cc([N+](=O)[O-])c1O [5-nitrovanillin]
98 °C | CC1(C)OC(=O)CC(=O)O1 [Meldrum's Acid]
35 °C | [O-][n+]1cccc(Br)c1 [3-bromopyridine n-oxide]
102 °C | NC(c1ccccc1)(c1ccccc1)c1ccccc1 [tritylamine]
-60 °C | C[SiH](C)O[Si](O[SiH](C)C)(O[SiH](C)C)O[SiH](C)C [tetrakis(dimethylsiloxy)silane]
236 °C | Cc1ccnc(NS(=O)(=O)c2ccc(N)cc2)n1 [sulfamerazine]

Continued, compound first:

SMILES | melting point
BrCBr [Dibromomethane] | -52 °C
OCCCO [1,3-propanediol] | -26 °C
ClC5(Cl)[C@]3(Cl)C(\Cl)=C(\Cl)[C@@]5(Cl)[C@H]4[C@H]1C[C@H]([C@@H]2O[C@H]12)[C@@H]34 [dieldrin] | 175 °C
O=C(Cl)CCl [chloroacetyl chloride] | -22 °C
CNc1ccccc1 [N-methylaniline] | -57 °C
N#CCc1ccccc1CC#N [1,2-phenylenediacetonitrile] | 59 °C
Clc1ccc(C(c2ccc(Cl)cc2)C(Cl)(Cl)Cl)cc1 [1,1'-(2,2,2-Trichloroethane-1,1-diyl)bis(4-chlorobenzene)] | 108 °C
COCCOCCOC [2-methoxyethyl_ether] | -64 °C
CCC(C)I (stereo unspecified) [2-iodobutane] | -104 °C

Source: the Bradley open melting point set (2014)
